Laboratory results reported in PubChem BioAssay (NCI).
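Where inhibition never reached the appropriate level, the endpoint shown equals the highest concentration tested. Otherwise, values were interpolated linearly from a five-concentration, 48-hour dose response in 96-well plates. The concentration for 50% growth inhibition is given as GI50. TGI denotes the concentration required for complete inhibition of growth.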

Legend:
Experiment in all cases: DTP human tumour cell line panel, 48 h
BT-549 breast = test system: BT-549 breast
HCC-2998 colon = test system: HCC-2998 colon
HT29 colon = test system: HT29 colon
NCI-H226 lung = test system: NCI-H226 lung
NCI-H460 lung = test system: NCI-H460 lung
RXF 393 renal = test system: RXF 393 renal
SK-OV-3 ovarian = test system: SK-OV-3 ovarian
SNB-75 CNS = test system: SNB-75 CNS
UACC-257 melanoma = test system: UACC-257 melanoma
UO-31 renal = test system: UO-31 renal

Row | SMILES | GI50 (BT-549 breast) | TGI (BT-549 breast) | GI50 (HCC-2998 colon) | TGI (HCC-2998 colon) | GI50 (HT29 colon) | TGI (HT29 colon) | GI50 (NCI-H226 lung) | TGI (NCI-H226 lung) | GI50 (NCI-H460 lung) | TGI (NCI-H460 lung) | GI50 (RXF 393 renal) | TGI (RXF 393 renal) | GI50 (SK-OV-3 ovarian) | TGI (SK-OV-3 ovarian) | GI50 (SNB-75 CNS) | TGI (SNB-75 CNS) | GI50 (UACC-257 melanoma) | TGI (UACC-257 melanoma) | GI50 (UO-31 renal) | TGI (UO-31 renal)
1 | COC(=O)Nc1nc2c(OC)c(OC)c(OC)cc2[nH]1 | 50.4 µM | > 100 µM | 55.6 µM | > 100 µM | 4.63 µM | > 97.1 µM | 61.4 µM | > 100 µM | 14.6 µM | > 100 µM | 18.4 µM | 66 µM | 30.8 µM | > 100 µM | 15.4 µM | > 92.6 µM | > 100 µM | > 100 µM | 36.4 µM | > 100 µM
2 | CC(=O)OCCC/C(=C\c1ccc2ccccc2c1)[N+](=O)[O-] | 1.72 µM | 3.42 µM | 1.73 µM | 3.32 µM | 2.3 µM | 5.59 µM | 1.76 µM | 4.16 µM | 2.91 µM | 8.62 µM | 1.94 µM | 4.1 µM | 5.26 µM | 18.5 µM | 1.45 µM | 2.99 µM | 1.81 µM | 3.54 µM | 1.16 µM | 2.6 µM
3 | OC(COc1ccc(Cl)cc1Cl)CN1CCCC1 (stereo not drawn) |  | > 100 µM |  | > 100 µM |  | 69.9 µM |  | > 100 µM |  | > 100 µM |  | > 100 µM |  | > 100 µM |  | > 100 µM |  | 60.2 µM |  | > 100 µM
4 | CC(C)(C)c1ccc(C(=O)N/N=C/c2ccc(O)cc2O)cc1 | 0.933 µM | 9.53 µM | 0.695 µM | 7.62 µM | 0.885 µM | 8.33 µM | 0.412 µM | 5.75 µM | 0.32 µM | 1.88 µM | 1.61 µM | 12.2 µM | 0.589 µM | 14.7 µM | 0.584 µM | 13.6 µM | 0.557 µM | 21.4 µM | 0.24 µM | 2.28 µM
5 | CC12C=CC(C)(O1)C1C2c2ccccc2S1(=O)=O (stereo not drawn) | 21.6 µM | 81.6 µM | > 100 µM | > 100 µM | > 100 µM | > 100 µM | 42 µM | > 100 µM | > 100 µM | > 100 µM | 0.637 µM | 36.9 µM | > 100 µM | > 100 µM | 23.2 µM | > 100 µM | 41.7 µM | > 100 µM | > 100 µM | > 100 µM
6 | COC(=O)[C@]12CC[C@@H](C)[C@H](C)[C@@H]1C1=CC[C@@H]3[C@@]4(C)C(c5ncon5)=C[C@@](C)(CO)C4=CC[C@@]3(C)[C@]1(C)CC2 | 2.39 µM | 6.38 µM | 2.14 µM | 3.79 µM | 1.94 µM | 3.88 µM | 1.99 µM | 4.4 µM | 1.97 µM | 3.95 µM | 1.75 µM | 3.33 µM | 4.49 µM | 15.5 µM | 1.62 µM | 4.33 µM | 2.1 µM | 4.34 µM | 1.69 µM | 3.2 µM
7 | Cn1c2ccccc2c2cc(-c3ccccc3)c3c(c21)C(=O)C=CC3=O |  | 26.5 µM |  | > 88.9 µM |  | 42.7 µM |  | 76.7 µM |  | 45.5 µM |  | 31.1 µM |  | > 100 µM |  | 67.1 µM |  | 50.9 µM |  | 42.9 µM
8 | c1ccc(Cn2cc3c(c2)-c2oncc2CC3)cc1 | 4.31 µM | 98.2 µM | 1.25 µM | 4.76 µM | 0.398 µM | 13.6 µM | 5.91 µM | 99.1 µM | 0.402 µM | 7.5 µM | 1.12 µM | 4.76 µM | 0.767 µM | 26.5 µM | 1.11 µM | 27 µM | 22.7 µM | 98.5 µM | 4.23 µM | 97.1 µM
9 | COc1cc(C2c3cc4c(cc3C3OC(=O)C2C3CO)OCO4)cc(OC)c1OC (stereo not drawn) | 0.0334 µM | 9.27 µM | 0.0297 µM | 0.0899 µM | 0.012 µM | > 100 µM | 0.0616 µM | > 100 µM | 0.0299 µM | > 100 µM | < 0.0162 µM |  | 0.0217 µM | 0.0722 µM | 0.0415 µM | > 100 µM |  | > 100 µM | 0.0644 µM | > 100 µM
10 | NC1=CC(=O)C(=O)c2cccnc21 | 4.73 µM | 18.7 µM | 14.7 µM | 28.4 µM | 15.1 µM | 38.7 µM | 14.7 µM | 42.5 µM | 2.63 µM | 7.38 µM | 14.2 µM | 27.2 µM | 18.8 µM | 41.2 µM | 3.02 µM | 15.3 µM | 2.23 µM | 6.7 µM | 2.48 µM | 17.7 µM
11 | NC(=O)Nc1ccc2ncnc(Nc3ccc(Cl)cc3)c2c1 | 18.9 µM | 67.4 µM | 33.5 µM | > 100 µM | 25.3 µM | > 100 µM | 22.9 µM | > 100 µM | 24.5 µM | > 100 µM | 17 µM | 83.6 µM | 4.5 µM | 34.1 µM | 8 µM | 61 µM | 22 µM | 66 µM | 6.96 µM | > 65.6 µM
12 | C/C1=C\CC[C@@](C)(O)[C@H]2C[C@H](CC/C(C)=C/CC1)C1(CC1)C(=O)O2 | 23.7 µM | 55.7 µM | 18 µM | 35.2 µM | 36.6 µM | > 100 µM | 21.2 µM | 46.5 µM | 19.6 µM | 45.7 µM | 18.4 µM | 42.8 µM | > 100 µM | > 100 µM | 44.2 µM | > 100 µM | 19.4 µM | 67.2 µM | 18.2 µM | 33.8 µM
13 | CCN(CC)c1ccc(/C=C/C(=O)c2cccc(NS(C)(=O)=O)c2)cc1 | 4.67 µM | > 100 µM | > 100 µM | > 100 µM | 3.15 µM | > 100 µM | 74 µM | > 100 µM | 4.72 µM | > 100 µM | 58 µM | > 100 µM | 5.27 µM | > 100 µM | 10.6 µM | > 100 µM | 92.5 µM | > 100 µM | > 100 µM | > 100 µM
14 | O=C1OCC2=C1C(c1cccc(F)c1)c1cc3c(cc1N2CCO)OCCO3 (stereo not drawn) | 0.417 µM | 11.4 µM | 0.768 µM | > 50 µM | 0.178 µM | > 50 µM | 3.18 µM | > 50 µM | 0.187 µM | > 50 µM | 0.141 µM | > 50 µM | 0.26 µM | > 50 µM | 0.113 µM | 0.38 µM | > 20 µM | > 50 µM | 0.276 µM | > 50 µM
15 | O=C1Nc2ccccc2C12CC(c1ccccc1)=NN2 (stereo not drawn) | 6.35 µM | > 100 µM | 36.1 µM | > 100 µM | 3.73 µM | 27.5 µM | 21.9 µM | > 100 µM | 3.94 µM | > 100 µM | 3.78 µM | 36.6 µM | 9.12 µM | > 100 µM | 2.98 µM | 59.4 µM | 5.02 µM | > 100 µM | 14.6 µM | > 100 µM
16 | Cc1cc(-c2ccccc2)c(C)n1Cc1ccc(Cl)cc1 | 5.5 µM | > 100 µM | 15.1 µM | 93.7 µM | 3.28 µM | 17.6 µM | 26.3 µM | > 100 µM | 3.75 µM | > 100 µM | 2.33 µM | 16.6 µM | 5.92 µM | > 100 µM | 3.17 µM | > 100 µM | 5.39 µM | 78.6 µM | 5.45 µM | > 100 µM
17 | COc1cc(Nc2ncc3c(n2)-c2ccc(Cl)cc2C(c2c(F)cccc2OC)=NC3)ccc1C(=O)O | 5.88 µM | > 81.1 µM | 19.2 µM | > 100 µM | 2.24 µM | 23.8 µM | 2.06 µM | 18.1 µM | 0.0412 µM | > 83.6 µM | 1.59 µM | 13.1 µM | 10.6 µM | 44 µM | 2.23 µM | 24.6 µM | 18.2 µM | > 92.5 µM | 2.57 µM | 21.4 µM
18 | O=C(Cc1ccccc1)Nc1nnc(CCSCCc2nnc(NC(=O)Cc3ccccc3)s2)s1 | 5.18 µM | 74.8 µM | 89.8 µM | > 100 µM | > 100 µM | > 100 µM | 29.9 µM | 97.4 µM | 14.5 µM | > 100 µM | 17.9 µM | 68.9 µM | 18.7 µM | 71.3 µM | 5.18 µM | 24.3 µM | > 100 µM | > 100 µM | 81.8 µM | > 100 µM
19 | Cc1cc(N(CCCNc2ccnc3cc(Cl)ccc23)Cc2cccs2)nc(Cl)n1 | 3.69 µM | 15.7 µM | 4.05 µM | 17.8 µM | 1.51 µM | 12.4 µM | 10.2 µM | 31.1 µM | 4.03 µM | 18.3 µM | 4.46 µM | 21.7 µM | 7.05 µM | 22.1 µM | 2.82 µM | 18 µM | 3.04 µM | 11.1 µM | 0.986 µM | 7.73 µM
20 | C[C@@H]1CN(Cc2ccc(/C=C/c3n[nH]c4ccc5nc(-c6cn[nH]c6C(F)(F)F)c6c(c5c34)CCCC6)cc2)C[C@H](C)O1 | 3.09 µM | 14.8 µM | 2.57 µM | 10.5 µM | 2.77 µM | 7.82 µM | 6.19 µM | 32.8 µM | 1.35 µM | 10.2 µM | 1.85 µM | 5.79 µM | 3.64 µM | 17.3 µM | 0.643 µM | 10.1 µM | 13.3 µM | 30.9 µM | 2.15 µM | 14 µM
